Experimental data published in the CheMixHub ionic liquid set.

Experiment: xn = mol fraction of the nth substance listed
Conditions: 318.15 K, 101 kPa, frequency 0.001 MHz

CCCCCCCCCCCCCCn1cc[n+](C)c1.[Br-] + CC[N+](CC)(CC)CC.[Br-] + O
Conditions	electrical conductivity [S/m]
x1 = 3.076e-05, x2 = 0	0.0206
x1 = 3.077e-05, x2 = 1.802e-05	0.0341
x1 = 3.077e-05, x2 = 3.604e-05	0.0451
x1 = 3.079e-05, x2 = 9.009e-05	0.0738
x1 = 3.474e-05, x2 = 0	0.0232
x1 = 3.475e-05, x2 = 1.802e-05	0.0362
x1 = 3.475e-05, x2 = 3.604e-05	0.0472
x1 = 3.477e-05, x2 = 9.009e-05	0.0748
x1 = 3.862e-05, x2 = 0	0.0253
x1 = 3.862e-05, x2 = 1.802e-05	0.0384
x1 = 3.863e-05, x2 = 3.604e-05	0.0492
x1 = 3.865e-05, x2 = 9.009e-05	0.0752
x1 = 4.24e-05, x2 = 0	0.028
x1 = 4.241e-05, x2 = 1.802e-05	0.0404
x1 = 4.242e-05, x2 = 3.604e-05	0.0511
x1 = 4.244e-05, x2 = 9.009e-05	0.0753
x1 = 4.613e-05, x2 = 0	0.0303
x1 = 4.614e-05, x2 = 1.802e-05	0.042
x1 = 4.615e-05, x2 = 3.604e-05	0.0518
x1 = 4.617e-05, x2 = 9.009e-05	0.0756
x1 = 4.973e-05, x2 = 0	0.0322
x1 = 4.974e-05, x2 = 1.802e-05	0.0432
x1 = 4.975e-05, x2 = 3.604e-05	0.0525
x1 = 4.978e-05, x2 = 9.009e-05	0.0758
x1 = 5.334e-05, x2 = 0	0.0335
x1 = 5.335e-05, x2 = 1.802e-05	0.0441
x1 = 5.336e-05, x2 = 3.604e-05	0.0531
x1 = 5.339e-05, x2 = 9.009e-05	0.0761
x1 = 5.676e-05, x2 = 0	0.0345
x1 = 5.677e-05, x2 = 1.802e-05	0.0449
x1 = 5.678e-05, x2 = 3.604e-05	0.0534
x1 = 5.681e-05, x2 = 9.009e-05	0.0763
x1 = 6e-05, x2 = 0	0.0356
x1 = 6.001e-05, x2 = 1.802e-05	0.0455
x1 = 6.003e-05, x2 = 3.604e-05	0.0541
x1 = 6.006e-05, x2 = 9.009e-05	0.0768
x1 = 6.343e-05, x2 = 0	0.0365
x1 = 6.344e-05, x2 = 1.802e-05	0.0461
x1 = 6.345e-05, x2 = 3.604e-05	0.0542
x1 = 6.349e-05, x2 = 9.009e-05	0.0773
x1 = 6.667e-05, x2 = 0	0.0372
x1 = 6.668e-05, x2 = 1.802e-05	0.0467
x1 = 6.67e-05, x2 = 3.604e-05	0.0548
x1 = 6.673e-05, x2 = 9.009e-05	0.0777
x1 = 6.973e-05, x2 = 0	0.0377
x1 = 6.975e-05, x2 = 1.802e-05	0.0473
x1 = 6.976e-05, x2 = 3.604e-05	0.0552
x1 = 6.98e-05, x2 = 9.009e-05	0.0781
x1 = 7.28e-05, x2 = 0	0.0383
x1 = 7.281e-05, x2 = 1.802e-05	0.0478
x1 = 7.282e-05, x2 = 3.604e-05	0.0555
x1 = 7.287e-05, x2 = 9.009e-05	0.0785
x1 = 7.586e-05, x2 = 0	0.0389
x1 = 7.587e-05, x2 = 1.802e-05	0.0482
x1 = 7.589e-05, x2 = 3.604e-05	0.0561
x1 = 7.593e-05, x2 = 9.009e-05	0.0786
x1 = 7.892e-05, x2 = 0	0.0396
x1 = 7.894e-05, x2 = 1.802e-05	0.0485
x1 = 7.895e-05, x2 = 3.604e-05	0.0568
x1 = 7.9e-05, x2 = 9.008e-05	0.0789
x1 = 8.18e-05, x2 = 0	0.0408
x1 = 8.182e-05, x2 = 1.802e-05	0.0492
x1 = 8.184e-05, x2 = 3.604e-05	0.0571
x1 = 8.188e-05, x2 = 9.008e-05	0.0792
x1 = 8.451e-05, x2 = 0	0.0414
x1 = 8.452e-05, x2 = 1.802e-05	0.0496
x1 = 8.454e-05, x2 = 3.604e-05	0.0573
x1 = 8.459e-05, x2 = 9.008e-05	0.0796
x1 = 8.739e-05, x2 = 0	0.0418
x1 = 8.741e-05, x2 = 1.802e-05	0.0502
x1 = 8.742e-05, x2 = 3.604e-05	0.058
x1 = 8.747e-05, x2 = 9.008e-05	0.0801
